Our source for the ED50, IC50 and Inhibition values is US5834511A, “DL- DI- or tri-hydroxyphenylglycine alkyl esters for the treatment of inflammatory and allergic conditions” (Ciba Specialty Chemicals Corporation, priority 1994, dated 1998).

The structures appear in SMILES notation. Read-outs that look alike come from different tables or passages of the source.

In one experiment the test system is carrageenan oedema. Kind of experiment: Carrageenan oedema of the rat paw after systemic application. It is filed as in vivo, rat (Wistar). The following applies: administered simultaneously with carrageenan, paw diameter 3 hours after inducing the oedema. A general note: Carrageenan injected into the paw causes an acute inflammation.
Experiment [1] concerns hydrogen peroxide formation in casein-stimulated peritoneal granulocytes of rats. Kind of experiment: Formation of hydrogen peroxide induced by opsonated zymosan in casein-stimulated peritoneal granulocytes. The following applies: 5×10^6 cells/ml, 30 min incubation. It is filed as cell-based, rat.
The test system of experiment [2] is ear oedema induced by croton oil. Kind of experiment: Croton oil ear oedema, topical application (antioedematous activity). The format is in vivo, mouse (AB). The settings on record: 2×10 μl of a 5% ethanolic solution 1 hour after croton oil, 6 hours after inducing oedema. On the procedure: Antioedamatous activity The assays for determining the antioedamatous activity of the novel compounds of formulae (101) and (102) prepared in Examples 1 and 2 are carried out on male AB mice (18-22 g, 9 animals per group). The ear oedema is induced by applying 2×10 μl of croton oil (1% in acetone) to the ears of the mice. After 1 hour the novel compounds (2×10 μl of a 5% ethanolic solution of each compound) are applied. After a further 5 hours (6 hours after inducing oedema) the animals are sacrificed, and pieces of ear tissue having a diameter of 8 mm are obtained. The oedema weight is determined as the difference between the contralateral ear. The percentage inhibition is calculated from a comparison with the control animals. (Table 2).

Experiment [3] has as its system writhing reactions induced by acetic acid. Description: Acetic acid-induced writhing syndrome. The format is in vivo, mouse (CBA). The settings on record: i.p., 5×10^-5 mol/kg, 30 minutes before inducement; recorded over 20 minutes. In general terms: An intraperitoneal irritant provokes the stretching counted in writhing tests.
Description: The writhing reactions are induced by i.p. (=intraperitoneal) injection of 0.1 ml of 1% acetic acid/10 g and recorded over a period of 20 minutes after injection.
For another experiment, the target named is T1, 5-LOX (Oryctolagus cuniculus, UniProt P12530).
T1 construct: 15-lipoxygenase from rabbit reticulocytes; from tissue; host or cells: rabbit reticulocytes
T1 sequence (P12530 2-663): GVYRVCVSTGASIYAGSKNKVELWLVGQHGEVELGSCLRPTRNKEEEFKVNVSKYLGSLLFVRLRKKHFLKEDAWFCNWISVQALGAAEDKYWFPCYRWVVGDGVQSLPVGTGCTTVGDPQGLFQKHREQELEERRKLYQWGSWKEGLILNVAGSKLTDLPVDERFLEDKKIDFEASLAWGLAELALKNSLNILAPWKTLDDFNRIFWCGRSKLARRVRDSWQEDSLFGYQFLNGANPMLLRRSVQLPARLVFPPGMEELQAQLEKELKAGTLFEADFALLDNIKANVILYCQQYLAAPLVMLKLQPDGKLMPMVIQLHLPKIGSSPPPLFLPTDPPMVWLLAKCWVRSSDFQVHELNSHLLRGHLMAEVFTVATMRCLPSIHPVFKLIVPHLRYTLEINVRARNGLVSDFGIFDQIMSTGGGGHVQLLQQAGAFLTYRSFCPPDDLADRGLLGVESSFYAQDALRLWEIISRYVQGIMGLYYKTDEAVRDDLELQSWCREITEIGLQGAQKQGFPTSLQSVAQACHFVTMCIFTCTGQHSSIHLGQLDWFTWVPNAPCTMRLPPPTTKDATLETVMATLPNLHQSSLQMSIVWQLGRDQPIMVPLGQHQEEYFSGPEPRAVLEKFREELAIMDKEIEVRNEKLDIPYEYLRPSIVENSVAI
Kind of experiment: Lipoxygenase activity, oxygraphic (Table 4 column headed 5-LOX; method describes 15-lipoxygenase). It is filed as biochemical, rabbit. The method, then: Prostaglandin H synthase is prepared from the seminal vesicles of sheep (F. S. Van der Ouderaa, M. Buytenhek.: Methods Enzymol. 86, 60-68 (1982)), and 15-lipoxygenase from rabbit reticulocytes (T. Schewe, R. Wiesner, S. M. Rapoport: Methods Enzymol. 71, 430-441 (1981)). Both enzymatic activities are measured oxygraphically at 25° C.
The 15-lipoxygenase activity is measured using 265 μmol/l of potassium linoleate as substrate in 0.1 molar phosphate puffer at pH 7.4 and 0.2% sodium cholate (T. Schewe, H. Kuhn, S. M. Rapoport, in: Prostaglandins and Related Substances--A Practical Approach pp. 229-242, C. Benedetto, R. G. McDonald-Gibson, S. Nigam, T. F. Slater (Eds.); IRL Press, Oxford, Wash. (1987)). The compounds are freshly dissolved in 2-methoxyethanol and preincubated for 5 minutes with the enzyme preparation, and the reaction is started by addition of substrate.

The target in a further experiment is T2, PGH Synthase (Ovis aries, UniProt P05979).
T2 construct: prepared from the seminal vesicles of sheep; from tissue; host or cells: sheep seminal vesicles, microsomal enzyme preparation
T2 sequence (P05979 25-600): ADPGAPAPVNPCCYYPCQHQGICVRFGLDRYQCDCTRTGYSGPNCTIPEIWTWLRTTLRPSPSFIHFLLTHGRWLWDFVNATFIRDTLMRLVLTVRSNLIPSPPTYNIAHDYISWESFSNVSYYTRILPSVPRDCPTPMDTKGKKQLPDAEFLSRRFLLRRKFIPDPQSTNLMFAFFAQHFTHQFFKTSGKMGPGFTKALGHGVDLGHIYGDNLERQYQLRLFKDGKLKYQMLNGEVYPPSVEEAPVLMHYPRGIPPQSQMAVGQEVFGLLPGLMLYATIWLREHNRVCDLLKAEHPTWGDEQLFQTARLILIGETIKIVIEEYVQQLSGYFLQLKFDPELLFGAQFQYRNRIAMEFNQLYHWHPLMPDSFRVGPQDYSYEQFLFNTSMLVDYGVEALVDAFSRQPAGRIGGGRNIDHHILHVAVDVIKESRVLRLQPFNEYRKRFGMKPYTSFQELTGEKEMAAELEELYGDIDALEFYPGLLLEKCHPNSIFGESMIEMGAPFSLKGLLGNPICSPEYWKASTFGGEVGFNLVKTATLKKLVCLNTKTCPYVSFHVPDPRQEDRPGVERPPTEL
Description: Prostaglandin H synthase activity, oxygraphic. The following applies: 30 μmol/l arachidonic acid, pH 8.0, 25° C., 5 minutes preincubation. It is filed as biochemical, sheep. On the procedure: Both enzymatic activities are measured oxygraphically at 25° C.

In another experiment the target is T3, 5-lipoxygenase (Homo sapiens, UniProt P09917).
T3 construct: 5-lipoxygenase of human polymorphonuclear leucozytes; endogenous in cells; host or cells: human polymorphonuclear leukocytes
T3 sequence (P09917 1-674): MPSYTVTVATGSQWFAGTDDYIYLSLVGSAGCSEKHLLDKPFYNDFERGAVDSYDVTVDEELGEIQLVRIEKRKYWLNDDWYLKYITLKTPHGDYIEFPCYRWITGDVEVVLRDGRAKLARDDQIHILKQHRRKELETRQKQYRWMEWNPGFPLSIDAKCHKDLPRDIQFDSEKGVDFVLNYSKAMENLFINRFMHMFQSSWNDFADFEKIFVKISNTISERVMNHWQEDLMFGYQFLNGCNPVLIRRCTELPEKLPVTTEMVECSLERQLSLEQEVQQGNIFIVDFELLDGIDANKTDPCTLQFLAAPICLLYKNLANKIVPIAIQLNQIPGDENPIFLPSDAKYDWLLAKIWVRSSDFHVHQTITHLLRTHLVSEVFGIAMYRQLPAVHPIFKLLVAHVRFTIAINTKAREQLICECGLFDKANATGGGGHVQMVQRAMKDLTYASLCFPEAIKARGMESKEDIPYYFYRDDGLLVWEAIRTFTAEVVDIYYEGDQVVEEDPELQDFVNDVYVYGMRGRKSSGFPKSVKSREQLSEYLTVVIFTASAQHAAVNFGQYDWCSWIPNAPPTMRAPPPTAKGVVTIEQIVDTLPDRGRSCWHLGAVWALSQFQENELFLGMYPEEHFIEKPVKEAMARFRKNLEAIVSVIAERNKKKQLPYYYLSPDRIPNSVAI
Description: Formation of 5-HETE by 5-lipoxygenase of human polymorphonuclear leucozytes. It is filed as cell-based. The following applies: 1-^14 C-arachidonic acid (10 μmol/l).

Where [4] appears, read: Rattus norvegicus, ip, read-out: ED50.

The term ED50 denotes the dose that gives a 50% effect, or the effect in half of the subjects. By IC50 is commonly meant the concentration that gives 50% inhibition. Usually Inhibition stands for the drop in the measured response relative to a control, in per cent. As to `CCCCCCCCOC(=O)C(N)c1cc(O)c(O)c(O)c1` (racemic) [compound of formula (102)], the ED50 with carrageenan oedema (setting [4]) came out at 80 µmol/kg. In addition, the IC50 in experiment [1] (Rattus norvegicus, 0.5 h) is 5.3 µM; at 5-LOX, 250 µM; at PGH Synthase it was 85 µM; against 5-lipoxygenase it was 1.3 µM. The Inhibition turned out to be 45.7% in experiment [2] and 80.7% in experiment [3].
Consider `CC(=O)Oc1ccccc1C(=O)O` [acetylsalicylic acid, reference compound], for which the ED50 with carrageenan oedema (i.p.) was 15.2 10^-4 mol/kg. In addition, the IC50 in experiment [1] is greater than 100 µM; on 5-LOX (265 μmol/l potassium linoleate, pH 7.4, 25° C., 5 minutes preincubation (method of 15-lipoxygenase), read-out: 5-LOX IC50), greater than 1000 µM. This compound also came in with an Inhibition in experiment [3] of 32.3%.
For `CCCCCCCCOC(=O)C(N)c1ccc(O)c(O)c1.Cl` (racemic) [compound of formula (101), DL-3,4-dihydroxyphenylglycine octyl ester hydrochloride], the ED50 with carrageenan oedema (setting [4]) worked out at 150 µmol/kg. The IC50 in experiment [1] (Rattus norvegicus, 0.5 h) came to 2.3 µM; against 5-LOX, 3.9 µM; against PGH Synthase, 110 µM; against 5-lipoxygenase, 6.9 µM. In addition, the figures for the Inhibition in experiment [2] and in experiment [3] were 23.9% and 80.2%, respectively.
